Molecules are shown by their SMILES.

For experiment [1], the system named is Tyrosine-protein kinase ABL1 (Homo sapiens), P00519 [T315I]. The experiment in a line: Binding affinity to human non-phosphorylated ABL1 T315I mutant (S229 to K512 residues) expressed in mammalian expression system assessed as residual binding level at 10 uM by Kinomescan method relative to control.
Experiment [2] deals with Tyrosine-protein kinase receptor TYRO3 (Homo sapiens) (UniProt Q06418). The experiment is described as follows: Binding affinity to wild-type human partial length TYRO3 (S497 to T814 residues) expressed in bacterial expression system assessed as residual binding level at 10 uM by Kinomescan method relative to control.
Experiment [3] has as its target Serine/threonine-protein kinase tousled-like 2 (Homo sapiens) (UniProt Q86UE8). The experiment is described as follows: Binding affinity to wild-type human partial length TLK2 (E424 to N749 residues) expressed in bacterial expression system assessed as residual binding level at 10 uM by Kinomescan method relative to control.
The test system of experiment [4] is Epidermal growth factor receptor (Homo sapiens), P00533 [G719C]. The experiment is described as follows: Binding affinity to human partial length EGFR G719C mutant (R669 to V1011 residues) expressed in bacterial expression system assessed as residual binding level at 10 uM by Kinomescan method relative to control.
The target of experiment [5] is Phosphatidylinositol 4,5-bisphosphate 3-kinase catalytic subunit beta isoform (Homo sapiens) (UniProt P42338). The experiment in a line: Binding affinity to wild-type human partial length PIK3CB (P118 to S1070 residues) expressed in mammalian expression system assessed as residual binding level at 10 uM by Kinomescan method relative to control.
In experiment [6] the target is Mitogen-activated protein kinase kinase kinase kinase 2 (Homo sapiens) (UniProt Q12851). The experiment is described as follows: Binding affinity to wild-type human partial length MAP4K2 (M1 to G318 residues) expressed in mammalian expression system assessed as residual binding level at 10 uM by Kinomescan method relative to control.
Experiment [7] relates to Fibroblast growth factor receptor 3 (Homo sapiens), P22607 [G697C]. The experiment in a line: Binding affinity to human partial length FGFR3 G697C mutant (R442 to S771 residues) expressed in bacterial expression system assessed as residual binding level at 10 uM by Kinomescan method relative to control.
The target of experiment [8] is Proto-oncogene tyrosine-protein kinase ROS (Homo sapiens) (UniProt P08922). The experiment is described as follows: Binding affinity to wild-type human partial length ROS1 (A1921 to N2240 residues) expressed in bacterial expression system assessed as residual binding level at 10 uM by Kinomescan method relative to control.
The target in experiment [9] is Serine/threonine-protein kinase TAO3 (Homo sapiens) (UniProt Q9H2K8). The experiment in a line: Binding affinity to wild-type human partial length TAOK3 (M1 to T316 residues) expressed in mammalian expression system assessed as residual binding level at 10 uM by Kinomescan method relative to control.
For experiment [10], the target named is Ephrin type-A receptor 6 (Homo sapiens) (UniProt Q9UF33). The experiment is described as follows: Binding affinity to wild-type human partial length EPHA6 (Y700 to E1046 residues) expressed in bacterial expression system assessed as residual binding level at 10 uM by Kinomescan method relative to control.
Experiment [11] has as its target Dual specificity mitogen-activated protein kinase kinase 5 (Homo sapiens) (UniProt Q13163). The experiment is described as follows: Binding affinity to wild-type human partial length MEK5 (L98 to P448 residues) expressed in mammalian expression system assessed as residual binding level at 10 uM by Kinomescan method relative to control.
Experiment [12] concerns the target Phosphatidylinositol 4,5-bisphosphate 3-kinase catalytic subunit gamma isoform (Homo sapiens) (UniProt P48736). The experiment in a line: Binding affinity to wild-type human partial length PIK3CG (S144 to A1102 residues) expressed in mammalian expression system assessed as residual binding level at 10 uM by Kinomescan method relative to control.
In experiment [13] the target is Mitogen-activated protein kinase kinase kinase 15 (Homo sapiens) (UniProt Q6ZN16). The experiment is described as follows: Binding affinity to wild-type human partial length MAP3K15 (T625 to L932 residues) expressed in mammalian expression system assessed as residual binding level at 10 uM by Kinomescan method relative to control.
The target in experiment [14] is Epithelial discoidin domain-containing receptor 1 (Homo sapiens) (UniProt Q08345). The experiment is described as follows: Binding affinity to wild-type human partial length DDR1 (R565 to V876 residues) expressed in bacterial expression system assessed as residual binding level at 10 uM by Kinomescan method relative to control.
Experiment [15] has as its target Mitogen-activated protein kinase kinase kinase 2 (Homo sapiens) (UniProt Q9Y2U5). The experiment in a line: Binding affinity to wild-type human partial length MAP3K2 (S315 to H619 residues) expressed in mammalian expression system assessed as residual binding level at 10 uM by Kinomescan method relative to control.
Experiment [16] relates to Phosphatidylinositol 4,5-bisphosphate 3-kinase catalytic subunit alpha isoform (Homo sapiens), P42336 [H1047L]. The experiment in a line: Binding affinity to human partial length PIK3CA H1047L mutant (R108 to N1068 residues) expressed in mammalian expression system assessed as residual binding level at 10 uM by Kinomescan method relative to control.
The target of experiment [17] is Death-associated protein kinase 1 (Homo sapiens) (UniProt P53355). The experiment in a line: Binding affinity to wild-type human partial length DAPK1 (M1 to F296 residues) expressed in bacterial expression system assessed as residual binding level at 10 uM by Kinomescan method relative to control.
Experiment [18] addresses Serine/threonine-protein kinase PAK 1 (Homo sapiens) (UniProt Q13153). The experiment in a line: Binding affinity to wild-type human partial length PAK1 (S149 to H545 residues) expressed in bacterial expression system assessed as residual binding level at 10 uM by Kinomescan method relative to control.
For experiment [19], the target named is Serine/threonine-protein kinase D2 (Homo sapiens) (UniProt Q9BZL6). The experiment in a line: Binding affinity to wild-type human partial length PRKD2 (A519 to E838 residues) expressed in bacterial expression system assessed as residual binding level at 10 uM by Kinomescan method relative to control.
Experiment [20] concerns Epidermal growth factor receptor (Homo sapiens), P00533 [UNDEFINED MUTATION]. The experiment in a line: Binding affinity to human partial length EGFR L747-S752del/P753S mutant expressed in bacterial expression system assessed as residual binding level at 10 uM by Kinomescan method relative to control.
The target of experiment [21] is Serine/threonine-protein kinase RIO1 (Homo sapiens) (UniProt Q9BRS2). The experiment is described as follows: Binding affinity to wild-type human full length RIOK1 (M1 to K568 residues) expressed in bacterial expression system assessed as residual binding level at 10 uM by Kinomescan method relative to control.
For experiment [22], the target named is Dual specificity mitogen-activated protein kinase kinase 1 (Homo sapiens) (UniProt Q02750). The experiment is described as follows: Binding affinity to wild-type human full length MEK1 (M1 to V393 residues) expressed in mammalian expression system assessed as residual binding level at 10 uM by Kinomescan method relative to control.
Experiment [23] deals with Ribosomal protein S6 kinase alpha-5 (Homo sapiens) (UniProt O75582). The experiment in a line: Binding affinity to wild-type human partial length C-terminal RPS6KA5 kinase domain 2 (V390 to T718 residues) expressed in bacterial expression system assessed as residual binding level at 10 uM by Kinomescan method relative to control.
Experiment [24] deals with Dual specificity mitogen-activated protein kinase kinase 6 (Homo sapiens) (UniProt P52564). The experiment is described as follows: Binding affinity to wild-type human partial length MEK6 (K36 to D334 residues) expressed in bacterial expression system assessed as residual binding level at 10 uM by Kinomescan method relative to control.

Ribosomal protein S6 kinase alpha-5 (Homo sapiens), sequence (O75582 whole entry, looked up, the tested form may be a part): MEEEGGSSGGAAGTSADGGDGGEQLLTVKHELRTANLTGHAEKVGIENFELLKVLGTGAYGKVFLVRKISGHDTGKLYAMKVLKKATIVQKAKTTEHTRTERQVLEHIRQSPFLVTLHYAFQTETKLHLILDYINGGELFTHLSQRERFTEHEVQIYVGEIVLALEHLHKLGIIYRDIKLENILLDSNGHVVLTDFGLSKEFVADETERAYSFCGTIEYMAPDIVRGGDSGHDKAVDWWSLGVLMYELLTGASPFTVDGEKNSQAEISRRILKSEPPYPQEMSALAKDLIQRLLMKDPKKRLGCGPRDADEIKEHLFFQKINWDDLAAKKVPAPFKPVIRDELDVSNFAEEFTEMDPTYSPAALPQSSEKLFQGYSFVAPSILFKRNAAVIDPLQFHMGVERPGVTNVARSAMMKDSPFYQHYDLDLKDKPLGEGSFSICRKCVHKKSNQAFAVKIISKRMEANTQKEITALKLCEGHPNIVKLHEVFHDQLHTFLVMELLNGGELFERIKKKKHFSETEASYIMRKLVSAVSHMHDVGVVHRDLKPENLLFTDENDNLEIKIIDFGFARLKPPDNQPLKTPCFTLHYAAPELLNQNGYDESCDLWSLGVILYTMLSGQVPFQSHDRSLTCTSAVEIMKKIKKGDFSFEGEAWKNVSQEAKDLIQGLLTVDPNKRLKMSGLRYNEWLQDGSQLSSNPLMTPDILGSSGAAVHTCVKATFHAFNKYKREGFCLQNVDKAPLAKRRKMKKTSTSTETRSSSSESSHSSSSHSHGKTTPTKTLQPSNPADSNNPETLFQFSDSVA
Dual specificity mitogen-activated protein kinase kinase 1 (Homo sapiens), sequence (Q02750 whole entry, the tested form may be a part): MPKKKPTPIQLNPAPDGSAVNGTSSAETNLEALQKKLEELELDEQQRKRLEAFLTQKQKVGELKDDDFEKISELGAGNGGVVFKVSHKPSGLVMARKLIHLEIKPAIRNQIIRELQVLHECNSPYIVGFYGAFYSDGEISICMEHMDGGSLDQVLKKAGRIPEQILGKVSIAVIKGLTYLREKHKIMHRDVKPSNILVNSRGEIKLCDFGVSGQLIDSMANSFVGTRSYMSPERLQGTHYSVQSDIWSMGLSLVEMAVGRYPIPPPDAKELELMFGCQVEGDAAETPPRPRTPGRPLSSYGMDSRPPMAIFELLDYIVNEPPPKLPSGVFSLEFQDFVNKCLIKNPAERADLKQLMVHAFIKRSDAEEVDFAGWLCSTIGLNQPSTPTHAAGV
Serine/threonine-protein kinase D2 (Homo sapiens), sequence (Q9BZL6 whole entry, the tested form may be a part): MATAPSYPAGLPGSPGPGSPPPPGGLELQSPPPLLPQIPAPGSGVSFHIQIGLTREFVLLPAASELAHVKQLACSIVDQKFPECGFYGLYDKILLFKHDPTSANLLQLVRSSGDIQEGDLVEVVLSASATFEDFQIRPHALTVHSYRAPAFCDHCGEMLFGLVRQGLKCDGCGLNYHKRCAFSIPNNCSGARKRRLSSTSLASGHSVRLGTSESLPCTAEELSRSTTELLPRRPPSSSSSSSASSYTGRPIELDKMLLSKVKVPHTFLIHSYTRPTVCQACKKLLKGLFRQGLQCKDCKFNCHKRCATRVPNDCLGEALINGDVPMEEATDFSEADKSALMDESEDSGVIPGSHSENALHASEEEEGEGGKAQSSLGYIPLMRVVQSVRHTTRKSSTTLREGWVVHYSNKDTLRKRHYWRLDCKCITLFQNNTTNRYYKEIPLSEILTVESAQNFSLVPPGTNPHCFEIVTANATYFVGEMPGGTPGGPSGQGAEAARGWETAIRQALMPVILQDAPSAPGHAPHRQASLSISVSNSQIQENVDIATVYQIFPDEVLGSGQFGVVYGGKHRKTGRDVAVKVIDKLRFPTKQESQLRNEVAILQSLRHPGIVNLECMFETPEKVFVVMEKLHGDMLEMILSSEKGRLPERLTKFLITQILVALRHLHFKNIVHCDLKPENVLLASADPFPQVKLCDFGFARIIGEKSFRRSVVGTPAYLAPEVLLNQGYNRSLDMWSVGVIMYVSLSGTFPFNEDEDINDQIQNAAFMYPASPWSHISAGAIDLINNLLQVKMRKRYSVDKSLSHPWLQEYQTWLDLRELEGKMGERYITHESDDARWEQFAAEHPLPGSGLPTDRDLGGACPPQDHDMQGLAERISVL
Serine/threonine-protein kinase TAO3 (Homo sapiens), sequence (Q9H2K8 whole entry, the tested form may be a part): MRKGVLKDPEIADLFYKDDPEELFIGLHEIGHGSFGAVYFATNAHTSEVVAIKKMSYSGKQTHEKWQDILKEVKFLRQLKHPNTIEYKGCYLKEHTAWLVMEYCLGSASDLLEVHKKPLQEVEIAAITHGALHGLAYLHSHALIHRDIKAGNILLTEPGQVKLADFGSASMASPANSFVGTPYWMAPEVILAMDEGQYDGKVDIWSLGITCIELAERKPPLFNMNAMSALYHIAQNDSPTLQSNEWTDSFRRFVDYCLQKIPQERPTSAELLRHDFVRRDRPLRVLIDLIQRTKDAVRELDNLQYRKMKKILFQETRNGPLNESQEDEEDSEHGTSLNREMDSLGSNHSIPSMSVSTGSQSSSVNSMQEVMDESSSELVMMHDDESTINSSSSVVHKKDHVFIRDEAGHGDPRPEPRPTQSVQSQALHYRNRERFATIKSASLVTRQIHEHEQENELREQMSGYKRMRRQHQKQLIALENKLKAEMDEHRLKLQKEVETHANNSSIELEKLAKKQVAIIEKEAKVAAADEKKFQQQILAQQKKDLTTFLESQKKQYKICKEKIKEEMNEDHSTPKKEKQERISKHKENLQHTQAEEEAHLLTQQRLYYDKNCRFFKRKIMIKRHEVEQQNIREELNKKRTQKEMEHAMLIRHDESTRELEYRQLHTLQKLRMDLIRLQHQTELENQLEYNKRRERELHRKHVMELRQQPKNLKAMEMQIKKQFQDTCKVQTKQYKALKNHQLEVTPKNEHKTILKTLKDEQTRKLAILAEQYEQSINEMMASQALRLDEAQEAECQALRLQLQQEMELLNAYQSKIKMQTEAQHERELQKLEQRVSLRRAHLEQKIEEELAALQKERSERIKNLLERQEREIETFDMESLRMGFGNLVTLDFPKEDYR
Mitogen-activated protein kinase kinase kinase 15 (Homo sapiens), sequence (Q6ZN16 whole entry, the tested form may be a part): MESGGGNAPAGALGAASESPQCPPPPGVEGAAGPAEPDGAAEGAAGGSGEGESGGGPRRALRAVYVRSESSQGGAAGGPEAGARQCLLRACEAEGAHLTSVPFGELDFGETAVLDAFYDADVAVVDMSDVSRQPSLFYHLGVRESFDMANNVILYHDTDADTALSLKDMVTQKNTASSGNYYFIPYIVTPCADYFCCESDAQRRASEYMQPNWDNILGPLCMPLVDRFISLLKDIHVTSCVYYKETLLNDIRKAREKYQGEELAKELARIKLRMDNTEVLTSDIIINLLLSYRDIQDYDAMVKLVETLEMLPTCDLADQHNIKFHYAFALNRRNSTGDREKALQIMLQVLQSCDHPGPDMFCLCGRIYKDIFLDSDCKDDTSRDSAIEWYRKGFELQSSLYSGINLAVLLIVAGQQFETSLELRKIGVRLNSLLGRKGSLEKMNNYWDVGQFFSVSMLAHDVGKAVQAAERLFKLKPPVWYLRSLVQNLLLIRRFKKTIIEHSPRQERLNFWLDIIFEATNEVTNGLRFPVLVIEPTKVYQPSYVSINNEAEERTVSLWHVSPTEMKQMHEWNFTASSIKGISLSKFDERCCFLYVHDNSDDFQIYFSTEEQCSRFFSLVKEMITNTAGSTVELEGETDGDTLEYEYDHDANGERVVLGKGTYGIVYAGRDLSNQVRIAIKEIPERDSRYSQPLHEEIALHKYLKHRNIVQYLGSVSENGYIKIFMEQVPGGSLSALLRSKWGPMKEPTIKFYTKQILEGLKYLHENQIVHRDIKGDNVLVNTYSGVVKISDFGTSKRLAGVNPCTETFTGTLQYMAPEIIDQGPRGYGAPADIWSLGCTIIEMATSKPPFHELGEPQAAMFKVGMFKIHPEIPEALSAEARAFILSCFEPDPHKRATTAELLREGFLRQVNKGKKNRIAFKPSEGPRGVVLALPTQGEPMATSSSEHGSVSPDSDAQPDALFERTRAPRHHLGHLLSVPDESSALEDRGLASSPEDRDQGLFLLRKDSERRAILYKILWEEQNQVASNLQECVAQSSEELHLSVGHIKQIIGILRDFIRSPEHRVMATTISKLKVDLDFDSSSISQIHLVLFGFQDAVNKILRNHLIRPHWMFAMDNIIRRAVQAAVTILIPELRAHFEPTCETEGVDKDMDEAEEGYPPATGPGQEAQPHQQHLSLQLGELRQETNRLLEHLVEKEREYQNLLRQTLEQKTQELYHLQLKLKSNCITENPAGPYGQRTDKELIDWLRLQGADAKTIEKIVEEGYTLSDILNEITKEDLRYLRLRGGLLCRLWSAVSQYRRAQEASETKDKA
Serine/threonine-protein kinase PAK 1 (Homo sapiens), sequence (Q13153 whole entry, the tested form may be a part): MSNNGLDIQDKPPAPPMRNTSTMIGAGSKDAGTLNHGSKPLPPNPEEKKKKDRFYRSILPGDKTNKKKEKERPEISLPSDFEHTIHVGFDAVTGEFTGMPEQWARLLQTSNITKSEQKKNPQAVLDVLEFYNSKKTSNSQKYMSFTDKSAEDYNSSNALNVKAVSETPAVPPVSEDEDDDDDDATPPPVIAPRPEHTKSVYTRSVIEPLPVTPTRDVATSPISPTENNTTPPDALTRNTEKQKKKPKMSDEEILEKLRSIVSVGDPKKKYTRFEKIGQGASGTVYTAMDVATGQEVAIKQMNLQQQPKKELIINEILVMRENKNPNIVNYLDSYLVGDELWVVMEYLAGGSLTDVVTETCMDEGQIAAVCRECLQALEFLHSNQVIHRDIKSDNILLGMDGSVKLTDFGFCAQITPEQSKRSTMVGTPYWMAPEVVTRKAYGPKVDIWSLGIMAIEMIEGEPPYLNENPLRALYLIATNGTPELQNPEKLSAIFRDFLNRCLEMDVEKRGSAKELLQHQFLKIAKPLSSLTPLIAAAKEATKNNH

Take `O=C(Nc1cc(-c2cn(CCNc3c4c(nc5ccccc35)CCCC4)nn2)ccn1)Nc1cccc2c1C1CCCCN1C2=O` (racemic): the Activity in experiment [1] is 18%; in [2], 96%; in experiment [3], 37%; in experiment [4] it was 78%; in experiment [5] it was 53%; in experiment [6], 9.2%. The Activity was 40% in experiment [7]; 100% in experiment [8]; 3.8% in experiment [9]; 97% in experiment [10]; 1.6% in [11]; 100% in [12]. In addition, the Activity was 100% in [13]; 0.3% in [14]; 9.1% in experiment [15]; 93% in experiment [16]; 68% in experiment [17]; 88% in experiment [18]. Further, the Activity in [19] is 31%; in experiment [20], 80%; in experiment [21], 5.2%; in [22], 7.6%; in experiment [23], 96%; in experiment [24], 63%.

Values taken from ChEMBL document CHEMBL4390652, “Design, biological evaluation and X-ray crystallography of nanomolar multifunctional ligands targeting simultaneously acetylcholinesterase and glycogen synthase kinase-3” (Eur J Med Chem, 2019).
